These results are taken from patent US11572590B2, “Methods for evaluating tumor cell spheroids using 3D microfluidic cell culture device” (Dana-Farber Cancer Institute, Inc., priority 2017, dated 2023).

Test [1] deals with T1, off-target kinases (Homo sapiens, UniProt Q9BXA7).
T1 sequence (Q9BXA7 1-367): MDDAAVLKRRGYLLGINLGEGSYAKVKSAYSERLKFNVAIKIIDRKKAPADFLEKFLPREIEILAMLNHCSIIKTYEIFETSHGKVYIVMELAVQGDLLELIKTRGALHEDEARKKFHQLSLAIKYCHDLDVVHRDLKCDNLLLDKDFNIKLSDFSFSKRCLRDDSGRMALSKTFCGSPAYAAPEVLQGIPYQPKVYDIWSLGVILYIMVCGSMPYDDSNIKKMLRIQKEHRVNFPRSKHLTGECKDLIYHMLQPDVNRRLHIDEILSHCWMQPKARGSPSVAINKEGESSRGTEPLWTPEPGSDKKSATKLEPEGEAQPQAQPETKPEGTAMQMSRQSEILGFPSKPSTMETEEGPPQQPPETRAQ
The test is described as follows: SelectScreen Kinase Profiling, single point inhibition and IC50 for off-target kinases. Format: biochemical. Particulars: STK22D (TSSK1), ATP Km app, ZLYTE.

Test [2] addresses T2, off-target kinases (Homo sapiens, UniProt Q13237).
T2 sequence (Q13237 1-762): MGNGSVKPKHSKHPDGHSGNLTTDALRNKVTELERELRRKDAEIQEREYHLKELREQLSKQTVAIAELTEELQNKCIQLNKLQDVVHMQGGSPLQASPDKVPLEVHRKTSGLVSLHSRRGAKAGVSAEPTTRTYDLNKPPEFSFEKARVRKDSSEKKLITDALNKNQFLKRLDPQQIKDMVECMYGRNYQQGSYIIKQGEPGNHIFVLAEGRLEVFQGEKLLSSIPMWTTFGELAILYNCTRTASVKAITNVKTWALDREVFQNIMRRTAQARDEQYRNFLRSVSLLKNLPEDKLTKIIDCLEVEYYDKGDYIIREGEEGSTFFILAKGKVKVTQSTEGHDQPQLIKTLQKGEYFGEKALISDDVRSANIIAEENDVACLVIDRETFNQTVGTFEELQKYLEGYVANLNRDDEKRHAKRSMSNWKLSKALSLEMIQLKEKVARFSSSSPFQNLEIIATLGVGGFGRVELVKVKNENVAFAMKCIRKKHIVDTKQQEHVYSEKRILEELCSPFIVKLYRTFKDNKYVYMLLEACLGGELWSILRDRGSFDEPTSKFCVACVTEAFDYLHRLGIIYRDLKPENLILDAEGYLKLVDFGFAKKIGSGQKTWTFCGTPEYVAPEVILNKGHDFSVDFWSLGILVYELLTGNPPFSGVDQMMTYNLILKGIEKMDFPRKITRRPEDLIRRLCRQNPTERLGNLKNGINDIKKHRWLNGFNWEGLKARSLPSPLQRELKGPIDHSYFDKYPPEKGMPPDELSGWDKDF
The description is as above. The test is classed as biochemical. Particulars: PRKG2 (PKG2), ZLYTE, ATP Km app.

Where two headings read alike, the source gives them in different places.

In general, inhibition refers to the relative decrease from the control value, in per cent. For `N#Cc1cc(-c2ncnc(Nc3ccc(N4CCN(C5COC5)CC4)cc3)n2)ccc1OC1CCOCC1` [Compound 1, 5-(4-((4-(4-(oxetan-3-yl)piperazin-1-yl)phenyl)amino)-1,3,5-triazin-2-yl)-2-((tetrahydro-2H-pyran-4-yl)oxy)benzonitrile], the inhibition at off-target kinases [1] (read-out: % Inhibition 1) stood at 99%; on off-target kinases [1] (read-out: % Inhibition 2), 95%; on off-target kinases [1] (read-out: % Inhibition Avg), 97%; at off-target kinases [2] (read-out: % Inhibition 1), 16%; on off-target kinases [2] (read-out: % Inhibition 2), 13%; on off-target kinases [2] (read-out: % Inhibition Avg) it was 14%.
